Among the data in patent publication US20170291890A1 (Epizyme, Inc., priority 2014, published 2017) are IC50 values, retold here.

One assay deals with T1, KDM4A (Homo sapiens, UniProt O75164).
T1 construct: N-terminal His-tagged KDM4A^1-350 was purchased from BPS Biosciences; His (N); purchased BPS Biosciences
T1 sequence (O75164 1-350): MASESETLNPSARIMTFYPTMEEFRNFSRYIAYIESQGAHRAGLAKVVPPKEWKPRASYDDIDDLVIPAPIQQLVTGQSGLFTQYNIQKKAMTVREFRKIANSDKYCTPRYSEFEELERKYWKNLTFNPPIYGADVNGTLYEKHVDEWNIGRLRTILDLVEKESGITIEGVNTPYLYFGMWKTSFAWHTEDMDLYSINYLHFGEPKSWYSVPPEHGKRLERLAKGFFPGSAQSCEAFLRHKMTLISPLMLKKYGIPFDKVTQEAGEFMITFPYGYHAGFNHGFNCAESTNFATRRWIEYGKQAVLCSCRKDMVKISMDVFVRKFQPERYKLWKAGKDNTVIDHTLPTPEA
Put plainly: KDM4A Assay (SAMDI mass spectrometry demethylase assay). It counts as biochemical. Conditions: N-terminal His-tagged KDM4A 1-350, read-out: 4A IC50. In a few lines:
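His-tagged KDM4A 1-350 (5 nM final) was preincubated 30 min with compound (10 μM final for screening) in 50 mM HEPES pH 8.0 with ascorbate, 10 μM Fe(II) and TCEP. Biotinylated Kme2 peptide (600 nM) and 2-oxoglutarate (5 μM) reacted 120 min at 25°C before a formic acid stop. SAMDI-MS % conversion from substrate and product peak areas; IC50 from dose-response.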

The next assay addresses T2, KDM4C (Homo sapiens, UniProt Q9H3R0).
T2 construct: N-terminal GST-tagged KDM4C^2-372 was purchased from BPS Biosciences; GST (N); purchased BPS Biosciences
T2 sequence (Q9H3R0 2-372): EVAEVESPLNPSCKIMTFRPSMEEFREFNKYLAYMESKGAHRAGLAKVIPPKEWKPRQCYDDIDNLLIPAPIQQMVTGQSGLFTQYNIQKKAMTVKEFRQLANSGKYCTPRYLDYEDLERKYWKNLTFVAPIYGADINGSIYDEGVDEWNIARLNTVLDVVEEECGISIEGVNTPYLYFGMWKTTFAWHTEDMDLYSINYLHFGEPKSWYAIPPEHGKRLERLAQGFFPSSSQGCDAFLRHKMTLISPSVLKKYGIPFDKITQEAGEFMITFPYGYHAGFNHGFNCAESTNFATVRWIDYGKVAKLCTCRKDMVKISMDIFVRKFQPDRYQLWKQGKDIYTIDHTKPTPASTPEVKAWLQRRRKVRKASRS
Briefly: KDM4C Assay (SAMDI mass spectrometry demethylase assay). It is filed as biochemical. As to conditions: N-terminal GST-tagged KDM4C 2-372, read-out: 4C IC50. The method, boiled down: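 GST-tagged KDM4C 2-372 (5 nM) preincubated 30 min with compound, then H3K9me3 biotinylated peptide (500 nM) and 2-oxoglutarate (15 μM) added in HEPES pH 8.0 with ascorbate, Fe(II), TCEP; 150 min at 25 °C, formic-acid quench. Conversion by SAMDI mass spectrometry from substrate/product peak AUC; IC50 from dose-response.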

Where two headings read alike, the source gives them in different places.

For orientation: IC50 means the concentration that gives 50% inhibition. For `Cn1ncc(-c2cccnc2)c1Nc1cnccc1C(=O)O` [Compound 4], the IC50 at KDM4A (class symbols) and at KDM4C (class symbols) was 1000 to 10000 nM in each case.
As to `Cn1nc(Nc2cnccc2C(=O)O)cc1-c1ccccc1` [Compound 5], the IC50 at KDM4A (class symbols) and at KDM4C (class symbols) was 100 to 1000 nM throughout.
For `Cc1nn([C@H]2CC[C@@H](N)CC2)cc1Nc1cnccc1C(=O)O` [Compound 80, 3-((1-((cis)-4-aminocyclohexyl)-3-methyl-1H-pyrazol-4-yl)amino)isonicotinic acid], the IC50 on KDM4A (class symbols) and at KDM4C (class symbols) was 100 to 1000 nM in each case.
With `CCc1c(Nc2cnccc2C(=O)O)cnn1-c1ccccc1` [Compound 81, 3-((5-ethyl-1-phenyl-1H-pyrazol-4-yl)amino)isonicotinic acid], the IC50 on KDM4A (class symbols) and on KDM4C (class symbols) was 1 to 100 nM in each case.
On to `Cc1ccc(-n2cc(Nc3cnccc3C(=O)O)c(C)n2)cc1` [Compound 82], for which the IC50 on KDM4A (class symbols) and on KDM4C (class symbols) was 1 to 100 nM in each case.
Take `NC1CCC(n2nc(-c3cccc(Cl)c3)cc2Nc2cnccc2C(=O)O)CC1` (stereo not shown) [Compound 85, 3-((1-(4-aminocyclohexyl)-3-(3-chlorophenyl)-1H-pyrazol-5-yl)amino)isonicotinic acid]: the IC50 at KDM4A (class symbols) and at KDM4C (class symbols) was 1000 to 10000 nM each time.
Turning to `O=C(O)c1ccncc1Nc1cc(-c2cccc(Cl)c2)n(C2CCC3(CC2)OCCO3)n1` [Compound 86, 3-((5-(3-chlorophenyl)-1-(1,4-dioxaspiro[4.5]decan-8-yl)-1H-pyrazol-3-yl)amino)isonicotinic acid], the IC50 on KDM4A (class symbols) was in the range of 100 to 1000 nM; on KDM4C (class symbols), 1000 to 10000 nM.
Taken in the same sequence, the figures for `NC1CCC(n2nc(Nc3cnccc3C(=O)O)cc2-c2cccc(Cl)c2)CC1` (stereo not shown) [Compound 87, 3-((1-(4-aminocyclohexyl)-5-(3-chlorophenyl)-1H-pyrazol-3-yl)amino)isonicotinic acid] were 10000 to 100000 nM and 10000 to 100000 nM.
Taken in the same sequence, the figures for `O=C(O)c1ccncc1Nc1nn(-c2ccccc2)cc1-c1ccncc1` [Compound 88, 3-((1-phenyl-4-(pyridin-4-yl)-1H-pyrazol-3-yl)amino) isonicotinic acid] were 100 to 1000 nM and 1 to 100 nM.
The like results for `Cc1nn(C2CCN(CC3CC3)CC2)cc1Nc1cnccc1C(=O)O` [Compound 89, 3-(1-(1-(cyclopropylmethyl)piperidin-4-yl)-3-methyl-1H-pyrazol-4-ylamino)isonicotinic acid] were, in that order, 1 to 100 nM and 100 to 1000 nM.
In the case of `Cc1c(Nc2cnccc2C(=O)O)cnn1C1CCN(CC2CC2)CC1` [Compound 90, 3-(1-(1-(cyclopropylmethyl)piperidin-4-yl)-5-methyl-1H-pyrazol-4-ylamino) isonicotinic acid], the IC50 on KDM4A (class symbols) and on KDM4C (class symbols) was 100 to 1000 nM in each case.
For `Cc1nn(C2CCN(C3CN(C)C3)CC2)cc1Nc1cnccc1C(=O)O` [Compound 91, 3-(3-methyl-1-(1-(1-methylazetidin-3-yl)piperidin-4-yl)-1H-pyrazol-4-ylamino)isonicotinic acid], the figures for the IC50 at KDM4A (class symbols) and at KDM4C (class symbols) were 100 to 1000 nM and 1000 to 10000 nM, respectively.
Taken in the same sequence, the figures for `Cc1c(Nc2cnccc2C(=O)O)cnn1C1CCN(C2CN(C)C2)CC1` [Compound 92, 3-(5-methyl-1-(1-(1-methylazetidin-3-yl)piperidin-4-yl)-1H-pyrazol-4-ylamino)isonicotinic acid] were 100 to 1000 nM and 100 to 1000 nM.
Consider `COC(=O)c1ccncc1Nc1cn(C2CCN(C3CCC3)CC2)nc1C` [Compound 93, methyl 3-((1-(1-cyclobutylpiperidin-4-yl)-3-methyl-1H-pyrazol-4-yl)amino)isonicotinate], for which the 50% inhibitory concentration (IC50) at KDM4A (class symbols) was 10000 to 100000 nM; on KDM4C (numeric bound) it was more than 100000 nM.
On to `Cc1nn(C2CCN(C3CCC3)CC2)cc1Nc1cnccc1C(=O)O` [Compound 94, 3-(1-(1-cyclobutylpiperidin-4-yl)-3-methyl-1H-pyrazol-4-ylamino)isonicotinic acid], for which the IC50 lay in the range of 1 to 100 nM on KDM4A (class symbols) and 100 to 1000 nM at KDM4C (class symbols).
Taken in the same sequence, the figures for `COC(=O)c1ccncc1Nc1cnn(C2CCN(C3CCC3)CC2)c1C` [Compound 95, methyl 3-((1-(1-cyclobutylpiperidin-4-yl)-5-methyl-1H-pyrazol-4-yl)amino)isonicotinate] were 10000 to 100000 nM and 10000 to 100000 nM.
For `CN1CCC(n2ncc(Nc3cnccc3C(=O)O)c2-c2ccccc2)CC1` [Compound 126, 3-(1-(1-methylpiperidin-4-yl)-5-phenyl-1H-pyrazol-4-ylamino) isonicotinic acid], the IC50 on KDM4A (numeric value) was 1490 nM; at KDM4C (class symbols) it was 1000 to 10000 nM.
